Reference: US12180178B2, “Heteroaryl azole compound and pest control agent” (NIPPON SODA CO., LTD., priority 2018, dated 2024)
Like-named read-outs stand apart in the source and are kept apart here.

Columns and labels:
Assay type in all cases: in vivo
[1] = tested on: Mythimna separata; assay: Test of Efficacy on Mythimna separata (test feed); conditions: 1 μl of emulsion (I) (5% active ingredient) in 0.8 g artificial feed; second instar larvae; 25° C.; fifth day
Procedure: 5 parts of the heteroaryl azole compound of the present invention, 93.6 parts of dimethylformamide, and 1.4 parts of polyoxyethylene alkyl aryl ether were mixed and dissolved to prepare emulsion (I) containing 5% of the active ingredient. For a control, 98.5 parts of dimethylformamide and 1.5 parts of polyoxyethylene alkyl aryl ether were mixed and dissolved to prepare emulsion (II). An insecticidal rate was calculated according to the following expression: Insecticidal rate (%)=(The number of dead insects/The number of tested insects)×100 0.8 g of commercially available artificial feed (Insecta LFS, manufactured by Nosan Corp.) and 1 μl of the emulsion (I) were well mixed to obtain test feed. A plastic test container (capacity: 1.4 ml) was packed with 0.2 g of the test feed per treatment plot. Then, two second instar larvae of Mythimna separata were inoculated to each treatment plot. A plastic lid was put on the test container so as to prevent escape of the second instar larvae of Mythimna separata. The container was placed in a thermostat chamber of 25° C. On the fifth day, the insecticidal rate and the food intake were examined. The test was conducted in duplicate. The insecticidal rate and the food intake of a control plot were examined in the same way as in Test Example 1 except that the emulsion (I) was changed to the emulsion (II).

[2] = tested on: Aphis craccivora; assay: Test of Efficacy on Aphis craccivora (spray on black-eyed peas); conditions: 96 h, read-out: insecticidal rate
Procedure: 5 parts of the heteroaryl azole compound of the present invention, 93.6 parts of dimethylformamide, and 1.4 parts of polyoxyethylene alkyl aryl ether were mixed and dissolved to prepare emulsion (I) containing 5% of the active ingredient.
An insecticidal rate was calculated according to the following expression: Insecticidal rate (%)=(The number of dead insects/The number of tested insects)×100
Seedlings of black-eyed peas were raised in 10-cm pots. Aphis craccivora nymphs were inoculated onto primary leaves. The emulsion (I) was diluted with water such that the concentration of the compound of the present invention was 125 ppm. The dilution was sprayed to the black-eyed peas parasitized by the Aphis craccivora nymphs. The black-eyed peas were placed in a thermostat chamber having a temperature of 25° C. and a humidity of 60%. Life and death of Aphis craccivora were determined after 4 days from the spraying, and the insecticidal rate was calculated. The test was conducted in duplicate.

[3] = tested on: Plutella xylostella; assay: Test of Efficacy on Plutella xylostella (cabbage leaf dip); conditions: foliar, 72 h, cabbage leaves dipped 30 seconds, second instar larvae, after 3 days, read-out: insecticidal rate
Procedure: 5 parts of the heteroaryl azole compound of the present invention, 93.6 parts of dimethylformamide, and 1.4 parts of polyoxyethylene alkyl aryl ether were mixed and dissolved to prepare emulsion (I) containing 5% of the active ingredient. An insecticidal rate was calculated according to the following expression: Insecticidal rate (%)=(The number of dead insects/The number of tested insects)×100 The emulsion (I) was diluted with water such that the concentration of the compound of the present invention was 125 ppm. Cabbage leaves were dipped in the dilution for 30 seconds. The resulting cabbage leaves were placed in a petri dish. Five second instar larvae of Plutella xylostella were released thereto. The petri dish was placed in a thermostat chamber having a temperature of 25° C. and a humidity of 60%. Life and death were determined after 3 days from the release of the insects, and the insecticidal rate was calculated. The test was conducted in duplicate.

[4] = 125 ppm, sprayed to black-eyed peas, nymphs, after 4 days

Row | SMILES | insecticidal rate or food intake as compared with the control plot [1] | pest or weed control at 125 ppm [2, 4] [%] | pest or weed control at 125 ppm [2] [%] | pest or weed control at 125 ppm [3] [%]
1 | CCS(=O)(=O)c1cc(C(F)(F)F)cnc1-c1ncn(/C=C(\F)C(F)(F)C(F)(F)F)c1C [a-4] | insecticidal rate of 100% for Mythimna separata or a food intake of 10% or less as compared with the control plot | – | – | –
2 | CCS(=O)(=O)c1cc(C(F)(F)F)cnc1-c1ncn(CC(F)(F)C(F)(F)C(F)(F)F)c1C [a-5] | insecticidal rate of 100% for Mythimna separata or a food intake of 10% or less as compared with the control plot | – | – | –
3 | CCS(=O)(=O)c1cc(C2CC2)cnc1-c1ncn(/C=C(\F)C(F)(F)F)c1C [a-14] | insecticidal rate of 100% for Mythimna separata or a food intake of 10% or less as compared with the control plot | – | – | –
4 | CCS(=O)(=O)c1cc(-c2ncccn2)cnc1-c1ncn(CC(F)(F)C(F)(F)C(F)(F)C(F)F)c1C [a-15] | insecticidal rate of 100% for Mythimna separata or a food intake of 10% or less as compared with the control plot | – | – | –
5 | CCS(=O)(=O)c1cc(-c2cc(F)cc(F)c2)cnc1-c1ncn(/C=C(\F)C(F)(F)C(F)(F)F)n1 [b-3] | insecticidal rate of 100% for Mythimna separata or a food intake of 10% or less as compared with the control plot | – | – | –
6 | CCS(=O)(=O)c1cc(C2CC2)cnc1-c1ncn(/C=C(\F)C(F)(F)C(F)(F)F)n1 [b-10] | insecticidal rate of 100% for Mythimna separata or a food intake of 10% or less as compared with the control plot | – | – | –
7 | CCS(=O)(=O)c1cc(-c2ncccn2)cnc1-c1ncn(/C=C(\F)C(F)(F)C(F)(F)F)n1 [b-12] | insecticidal rate of 100% for Mythimna separata or a food intake of 10% or less as compared with the control plot | – | – | –
8 | CCS(=O)(=O)c1cc(Br)cnc1-c1ncn(/C=C(\F)C(F)(F)C(F)(F)C(F)F)n1 [b-20] | insecticidal rate of 100% for Mythimna separata or a food intake of 10% or less as compared with the control plot | – | – | –
9 | CCS(=O)(=O)c1cc(C2(C)CC2)cnc1-c1ncn(/C=C(\F)C(F)(F)C(F)(F)C(F)(F)F)n1 [b-22] | insecticidal rate of 100% for Mythimna separata or a food intake of 10% or less as compared with the control plot | – | – | –
10 | CCS(=O)(=O)c1cc(-c2ccccn2)cnc1-c1ncn(CC(F)(F)C(F)(F)F)c1C [c-1, 5′-(ethylsulfonyl)-6′-(5-methyl-1-(2,2,3,3,3-pentafluoropropyl)-1H-imidazol-4-yl)-2,3′-bipyridine] | insecticidal rate of 100% for Mythimna separata or a food intake of 10% or less as compared with the control plot | ≥ 80 | – | –
11 | CCS(=O)(=O)c1cc(-c2ncccn2)cnc1-c1ncn(CC(F)(F)C(F)(F)F)c1C [c-2] | insecticidal rate of 100% for Mythimna separata or a food intake of 10% or less as compared with the control plot | ≥ 80 | – | –
12 | CCS(=O)(=O)c1cc(C2CC2)cnc1-c1ncn(CC(F)(F)C(F)(F)F)c1C [c-3] | – | ≥ 80 | – | –
13 | CCS(=O)(=O)c1cc(Br)cnc1-c1ncn(CC(F)(F)C(F)(F)F)c1C [c-4] | – | ≥ 80 | – | –
14 | CCS(=O)(=O)c1cc(C2CC2)cnc1-c1ncn(CC(F)(F)C(F)(F)C(F)(F)F)c1C [c-6] | insecticidal rate of 100% for Mythimna separata or a food intake of 10% or less as compared with the control plot | ≥ 80 | – | –
15 | CCS(=O)(=O)c1cc(Br)cnc1-c1ncn(CC(F)(F)C(F)(F)C(F)(F)F)c1C [c-7] | – | – | ≥ 80 | –
16 | CCS(=O)(=O)c1ccc(-n2cncn2)nc1-c1ncn(-c2ccc(C(F)(F)F)cn2)n1 [d-3] | insecticidal rate of 100% for Mythimna separata or a food intake of 10% or less as compared with the control plot | ≥ 80 | – | –
17 | CCS(=O)(=O)c1cc(C2CC2)cnc1-c1ncn(-c2ccc(C(F)(F)F)cn2)n1 [d-4, 5-cyclopropyl-3-(ethylsulfonyl)-2-(1-(5-(trifluoromethyl)pyridin-2-yl)-1H-1,2,4-triazol-3-yl)pyridine] | insecticidal rate of 100% for Mythimna separata or a food intake of 10% or less as compared with the control plot | ≥ 80 | – | ≥ 80
18 | CCS(=O)(=O)c1cc(-c2ncccn2)cnc1-c1ncn(-c2ccc(C(F)(F)F)cn2)n1 [d-5] | insecticidal rate of 100% for Mythimna separata or a food intake of 10% or less as compared with the control plot | – | – | ≥ 80
19 | CCS(=O)(=O)c1cc(C2CC2)cnc1-c1ncn(-c2ccc(SC(F)(F)F)cc2)n1 [d-9] | insecticidal rate of 100% for Mythimna separata or a food intake of 10% or less as compared with the control plot | – | – | –
20 | CCS(=O)(=O)c1ccc(Cl)nc1-c1ncn(-c2ccc(OC(F)(F)F)cc2)n1 [d-10] | insecticidal rate of 100% for Mythimna separata or a food intake of 10% or less as compared with the control plot | ≥ 80 | – | –
21 | CCS(=O)(=O)c1ccc(-n2cncn2)nc1-c1ncn(-c2ccc(OC(F)(F)F)cc2)n1 [d-11] | insecticidal rate of 100% for Mythimna separata or a food intake of 10% or less as compared with the control plot | ≥ 80 | – | –
22 | C=C(C)c1cnc(-c2ncn(-c3ccc(OC(F)(F)F)cc3)n2)c(S(=O)(=O)CC)c1 [d-13] | insecticidal rate of 100% for Mythimna separata or a food intake of 10% or less as compared with the control plot | – | – | –
23 | CCS(=O)(=O)c1cc(C2(C)CC2)cnc1-c1ncn(-c2ccc(OC(F)(F)F)cc2)n1 [d-14] | insecticidal rate of 100% for Mythimna separata or a food intake of 10% or less as compared with the control plot | ≥ 80 | – | –
24 | CCS(=O)(=O)c1cc(C2CC2)cnc1-c1ncn(-c2ccc(OC(F)(F)C(F)F)cc2)n1 [d-15] | insecticidal rate of 100% for Mythimna separata or a food intake of 10% or less as compared with the control plot | – | – | ≥ 80
25 | CCS(=O)(=O)c1cc(-c2ccccn2)cnc1-c1ncn(-c2ccc(OC(F)(F)C(F)F)cc2)n1 [d-16] | insecticidal rate of 100% for Mythimna separata or a food intake of 10% or less as compared with the control plot | ≥ 80 | – | ≥ 80
26 | CCS(=O)(=O)c1cnc(-c2ncccn2)nc1-c1ncn(-c2ccc(C(F)(F)C(F)(F)F)cc2)n1 [d-18] | – | ≥ 80 | – | –
27 | CCS(=O)(=O)c1ccc(S(=O)(=O)CC)c(-c2cn(-c3ccc(OC(F)(F)F)cc3)cn2)n1 [d-21] | – | ≥ 80 | – | –
28 | CCS(=O)(=O)c1cc(-c2ccccn2)cnc1-c1ncn(-c2ccc(OC(F)(F)F)cc2)c1Br [d-23] | – | – | – | ≥ 80
29 | CCS(=O)(=O)c1ccc(-n2cncn2)nc1-c1cn(-c2ccc(OC(F)(F)F)cc2)cn1 [d-24] | insecticidal rate of 100% for Mythimna separata or a food intake of 10% or less as compared with the control plot | ≥ 80 | – | ≥ 80
